According to PubChem BioAssay AID1645871:
Square brackets hold non-standard residues; d marks the D form. Peptide text beside a SMILES is read from it. ξ: configuration not given here. ξLac(3-iPr) = CC(C)CC(O)C(=O)O; NMeV = CN[CH](C(=O)O)C(C)C; NMeA = CN[CH](C)C(=O)O; βAla = NCCC(=O)O

Details: pampa; pH 5.0; 30.0 min; 50.0 µM
Cc1noc(C)c1-c1cc(-c2ccc3c(c2)C(=O)NC3)cn2cncc12 gave a Papp of 644 nm/s. Compound COC(=O)c1cccc(NC(=O)c2cnc(-c3ccc(F)cc3)nc2-c2ccncc2)c1 has a Papp of 6710 nm/s. Compound CCOc1ccccc1C(=O)Nc1ccncc1C(=O)Nc1cccc(S(=O)(=O)C(F)(F)F)c1 has a Papp of 1390 nm/s. For Cc1ccccc1-c1nc(NCc2ccc(-c3cccnc3)cc2)c2ccccc2n1, the Papp was > 10000 nm/s. CCN(CC)CCCC(C)Nc1cc(/C=C/c2ccccc2Cl)nc2cc(Cl)ccc12 (stereo not given) showed a Papp of 829 nm/s. FC(F)(F)c1ccccc1-c1nc(NCc2ccc(-c3cccnc3)cc2)c2ccccc2n1 gave a Papp of 7120 nm/s. With Nc1c(-c2ccccc2)cc[nH]c1=O the Papp was 768 nm/s. In the case of Cc1cc(C)cc(C(=O)Nc2ccc3c(N4CCCC4)ncnc3c2)c1, the Papp is reported as 5060 nm/s. Compound CC1=C[C@@H](CNC(C)C)[C@H](C(C)C)C[C@H]1Cc1nnc(-c2ccncc2)o1 has a Papp of 413 nm/s. In the case of Cc1cccc(N2CCN(c3nc4ccccc4c4nnc(C)n34)CC2)c1C, the Papp is reported as > 10000 nm/s. For CCCNC(=O)c1ccc2c(c1)N=C(C)c1c(C)ccc(C)c1S2, the Papp was > 10000 nm/s. Cc1ccnc(NC(=S)N2CCN(c3ccc(N)cc3)CC2)c1 gave a Papp of 41.3 nm/s. CCOc1ccc(S(=O)(=O)NCc2cccnc2)cc1NC(=O)c1ccccc1F gave a Papp of 2780 nm/s. CNc1oc(-c2cccc3ccccc23)nc1C#N showed a Papp of 6450 nm/s. In the case of Cc1ccc(-n2c(=O)c3oc4ccccc4c3n(CC(=O)Nc3ccc(F)c(Cl)c3)c2=O)cc1C, the Papp is reported as 5830 nm/s. COc1ccc(-n2nc(C)c([C@@H]3C=C[C@@H](NCc4cccc(Cl)c4)C3)c2C)cc1 gave a Papp of 7730 nm/s. With COc1cc2c(c(OC)c1OC)-c1ccc(OC)c(=O)cc1[C@@H](NC(C)=O)CC2 the Papp was 45.1 nm/s. Work on C[C@]1(CO)CN(c2cc(C(=O)Nc3ccc4c(c3)-c3c(c(C(N)=O)nn3-c3ccc(F)cc3)CC4)c(Cl)cn2)C[C@@]1(C)CO yielded a Papp of 456 nm/s. Compound Cc1ccccc1S(=O)(=O)N1CCCC(CCC(=O)NCCN(C)C2CCCCC2)C1 (stereo not given) has a Papp of 328 nm/s. CCCCOc1ccc(C2c3c(oc4ccc(C)cc4c3=O)C(=O)N2CCCN(C)C)cc1OCC (stereo not given) showed a Papp of 2730 nm/s. For COc1ccc(Cn2c(C(=O)O)c(CNCc3cccc(OC)c3)c3ccc(C)cc32)cc1, the Papp was 9310 nm/s. For O=C(c1ccc(-c2ncc3cnc(-c4ccccc4)cn23)cc1)N1CCS(=O)(=O)CC1, the Papp was 228 nm/s. With COc1cccc(C(=O)Nc2nnc(S(=O)(=O)N3CCOCC3)s2)c1 the Papp was 7870 nm/s. For O=C(COc1ccccc1)NCC(c1cccs1)S(=O)(=O)c1ccc(Cl)cc1 (stereo not given), the Papp was 8550 nm/s. Cc1cccc(S(=O)(=O)c2cn(Cc3ccccc3)c3cc(N4CCCC(C)C4)c(F)cc3c2=O)c1 (stereo not given) showed a Papp of 8320 nm/s. With COc1cc(Cl)c(C)cc1Nc1c2c(nc3ccccc13)CCC2 the Papp was > 10000 nm/s. For c1ccc(Nc2cc3c(cn2)CN(Cc2ccsc2)CCN3)cc1, the Papp was 153 nm/s. Work on COc1ccccc1C(=O)Nc1nnc(SCc2cc(=O)c3ccccc3[nH]2)s1 yielded a Papp of 4020 nm/s. For CCOc1ccc(CCNC(=O)c2cc3ccccc3n2C)cc1OCC, the Papp was > 10000 nm/s. CNc1oc(-c2cccc(Cl)c2Cl)nc1C#N showed a Papp of 5890 nm/s. In the case of CC(C)(C)C(=O)N1CCN(c2nccc(Nc3ccccc3Cl)n2)CC1, the Papp is reported as 8950 nm/s. Compound Cc1ccc2nc(-c3cc(NC(=O)c4ccc5c(c4)OCCO5)ccc3Cl)oc2c1 has a Papp of 286 nm/s. COc1ccccc1CNC(=O)CCCn1nc(C)c2c(C)n(-c3ccc(C)cc3)nc2c1=O showed a Papp of 2370 nm/s. Work on COc1ccc2c(c1)CN(C(=O)CCN1CCC(Cc3ccccc3)CC1)CCS2 yielded a Papp of 8070 nm/s. With Cc1ccc(NC(=O)c2cc(-c3ccc[nH]3)n[nH]2)cc1F the Papp was 2350 nm/s. Work on CCN(c1ccccc1)S(=O)(=O)c1c(C)nc2scc(C)n2c1=O yielded a Papp of 4790 nm/s. Work on C=Cc1ccc(Cn2c(C(=O)O)c(CNC3CCCCC3)c3ccc(OC)cc32)cc1 yielded a Papp of 7020 nm/s. With CCOc1ccc(CNC(=O)CCCn2nc(C)c3c(C)n(-c4ccc(C)cc4)nc3c2=O)cc1 the Papp was 5820 nm/s. Compound CC(=O)Nc1ccc(C(=O)Nc2ccc3c(c2)N(C2CCCC2)C(=O)c2ccccc2S3)cc1 has a Papp of 5110 nm/s. For CSc1nn(Cc2cccc(C)c2)c(N)c1S(=O)(=O)c1ccccc1, the Papp was 8780 nm/s. In the case of Cc1ccccc1NC(=O)Nc1cccs1, the Papp is reported as 2090 nm/s. CC[C@H]1CN2CCC3CC(OC)C(OC)CC3[C@@H]2C[C@@H]1C[C@H]1NCCC2=C1CC(OC)=C(O)C2 (stereo not given in full) gave a Papp of 179 nm/s. Cc1cccc(-c2noc([C@@H]3Cc4nc[nH]c4CN3C(=O)CC(C)(C)CC(=O)O)n2)c1 showed a Papp of 467 nm/s. Work on COc1ccc(-n2nc(C3CCCN([S+](=O)([O-])c4cccc(C(F)(F)F)c4)C3)[nH]c2=O)cc1 (stereo not given) yielded a Papp of 5640 nm/s. Compound S=c1[nH]c2ccccc2n1CCc1ccccc1 has a Papp of 9030 nm/s. With CCOC(=O)c1ccc(NC(=O)c2sc3nc4c(cc3c2N)N2CCC4CC2)cc1 the Papp was 7200 nm/s. In the case of O=C(CCCCn1c(=O)[nH]c2ccsc2c1=O)N1CCN(c2cccc(Cl)c2)CC1, the Papp is reported as 7190 nm/s. Compound CCC(CC)c1cc([C@H]2CN3CC[C@H]2C[C@@H]3CNS(=O)(=O)c2cccs2)nc(-c2ccncc2)n1 has a Papp of 7500 nm/s. Work on COc1cccc(CNCc2cccn2-c2nnc(N3CCN(c4ccccc4)CC3)s2)c1 yielded a Papp of 9240 nm/s. COc1cc(NC(=O)Cn2c(=O)oc3cc(S(=O)(=O)N4CCCCCC4)ccc32)cc(OC)c1 gave a Papp of 3720 nm/s. In the case of O=C(NCC1CCN(Cc2cccc(Cl)c2)CC1)Nc1ccc(F)c(Cl)c1, the Papp is reported as 6380 nm/s. With CCOc1ccccc1C(=O)NC1CCN(c2cc(C)cc(C)c2)C1=O (stereo not given) the Papp was > 10000 nm/s. In the case of COc1cccc(N2CCN(c3ncc4c(n3)CCN(Cc3ccc(Br)cc3)C4)CC2)c1, the Papp is reported as 9390 nm/s. For CN(C)C(=O)c1nc(-c2ccc(Cl)cc2Cl)c2cnccn12, the Papp was > 10000 nm/s. Compound Cc1ccc(CNCc2cn[nH]c2-c2ccc(C)cc2)cc1 has a Papp of 4100 nm/s. Work on CNC(=O)c1ccccc1Nc1nc(Nc2ccc(N3CCOCC3)cc2OC)ncc1Cl yielded a Papp of 1450 nm/s. For Fc1ccccc1-c1nc(NCc2ccc(-c3cccnc3)cc2)c2ccccc2n1, the Papp was > 10000 nm/s. In the case of COc1cc(Cl)c(C)cc1NS(=O)(=O)c1c(C)nc2sccn2c1=O, the Papp is reported as 8020 nm/s. Compound CCOC(=O)N1CCN(Cc2nc3cc(NC(=O)c4ccc(OC)cc4)ccc3n2C(C)C)CC1 has a Papp of 8080 nm/s. For CC(C)c1ccccc1-c1nc2c(c(NCc3ccc(-c4cccnc4)cc3)n1)CNC2, the Papp was 987 nm/s. Compound Cn1c(CN2CCCCC2)nc2cc(NC(=O)c3cccc(Br)c3)ccc21 has a Papp of 1780 nm/s. COc1ccc(CN2CCNc3cc(Nc4ccccc4)ncc3C2)cc1 showed a Papp of 1190 nm/s. CCn1cc(C(=O)N2CCN(c3cccc(Cl)c3)CC2)c2cc(OC)c(OC)cc2c1=O showed a Papp of 8100 nm/s. For Cn1nnnc1Sc1ncnc2scc(-c3cc4ccccc4o3)c12, the Papp was 528 nm/s. In the case of Cc1nn2c(c1-c1ccccc1OCc1ccccc1)N(C(=O)Cc1ccc3c(c1)OCO3)CCC2, the Papp is reported as > 10000 nm/s. With CN1CCN(Cc2ccc(NC(=O)Cc3ccc(Oc4cc(NC(=O)C5CC5)ncn4)cc3)cc2C(F)(F)F)CC1 the Papp was 193 nm/s. Cc1cc(NS(=O)(=O)c2ccc3c(c2)CCC(=O)N3)ccc1F showed a Papp of 4630 nm/s. Compound COc1c(O)cc2c(c1OC)-c1ccc(SC)c(=O)cc1C(NC(C)=O)CC2 (stereo not given) has a Papp of 207 nm/s. COc1ccc(CCNC(=O)Cn2c(=O)c3cccn3c3ccc(F)cc32)cc1OC showed a Papp of 3170 nm/s. In the case of CN1CCN(c2ccc(Nc3nn4c(=O)c5ccccc5nc4s3)cc2)CC1, the Papp is reported as 59.1 nm/s. O=C(Nc1ccccc1-c1cn2c(CN3CCNCC3)csc2n1)c1cnc2ccccc2n1 showed a Papp of 3420 nm/s. For COc1cccc(Cn2c(=O)n(-c3cccc(Cl)c3C)c(=O)c3c4c(sc32)CN(C(C)=O)CC4)c1, the Papp was > 10000 nm/s. Cc1n[nH]c(C)c1CCc1nc2c3ccccc3nc(SCC(=O)Nc3ccc(F)cc3)n2n1 showed a Papp of 3830 nm/s. COc1ccc(-n2nc(C3CCCN(C(=O)c4ccc(C)cc4)C3)[nH]c2=O)cc1 (stereo not given) gave a Papp of 6030 nm/s. O=C(Nc1cccc(OC(F)(F)F)c1)c1cc(-c2ccc[nH]2)n[nH]1 gave a Papp of 1030 nm/s. In the case of C[C@@]1(c2ncncc2F)NC(=O)c2cc(-c3cn[nH]c3)ccc21, the Papp is reported as > 10000 nm/s. O=C(NCCc1cnc[nH]1)c1ccc(-c2ncc3cnc(-c4cccc(F)c4)cn23)cc1 gave a Papp of 50.9 nm/s. With COc1ccc(-n2nc(C3CCCN(C(=O)c4cccc(OC)c4)C3)[nH]c2=O)cc1 (stereo not given) the Papp was 4310 nm/s. With O=C1Nc2ccc(-c3cccc(C(F)(F)F)c3)cc2C(=O)N2CCN(C(=O)COc3ccccc3)C[C@H]12 the Papp was 8590 nm/s. In the case of CCC(C)C1NC(=O)C2CCCN2C(=O)C(CC(C)C)OC(=O)CCNC(=O)C(C)N(C)C(=O)C(C(C)C)N(C)C1=O (stereo not given) (cyclo([ξLac(3-iPr)]PI[NMeV][NMeA][βAla]); configuration not given here), the Papp is reported as 740 nm/s. In the case of COc1ccc2[nH]c(S(=O)Cc3ncc(C)c(OC)c3C)nc2n1 (stereo not given), the Papp is reported as 498 nm/s. Fc1ccccc1CNCc1ccc(-c2ccnc3[nH]ccc23)cc1 showed a Papp of 2660 nm/s. For COc1ccc(OC)c(CN2CCNc3cc(Nc4ccccc4)ncc3C2)c1, the Papp was 23.3 nm/s. In the case of CN1C(=O)C(=O)N2C(=C[C@]3(c4c[nH]c5ccccc45)c4ccccc4N[C@H]23)C1=O, the Papp is reported as 9860 nm/s. In the case of CCC(CC)c1cc([C@H]2CN3CC[C@H]2C[C@@H]3CNC(C)=O)nc(-c2ccncc2)n1, the Papp is reported as 149 nm/s. Cc1ccc(C(=O)NC2CCN(c3cnn(CC4CC4)c(=O)c3)CC2)cc1C gave a Papp of 4980 nm/s. In the case of Cc1nn2c(c1-c1ccccc1-c1ccccc1)N(Cc1ccc(O)cc1)CCC2, the Papp is reported as 1180 nm/s. With COc1ccc(-n2nc(C3CCCN(C(=O)Cc4ccc(F)cc4)C3)[nH]c2=O)cc1 (stereo not given) the Papp was 5240 nm/s. For CCOC(=O)C1=C(CN(CC)Cc2ccccc2)NC(=O)NC1c1ccc(OC(C)C)cc1 (stereo not given), the Papp was > 10000 nm/s. For CC(C)c1ccc(OCc2nc3c(n2Cc2ccccc2)C(=O)N(CC2CCOCC2)CCN3)cc1, the Papp was 6430 nm/s. In the case of COC(=O)C1=C(C)NC(C)=C(C(=O)O[C@@H]2CCCN(Cc3ccccc3)C2)[C@@H]1c1cccc([N+](=O)[O-])c1, the Papp is reported as > 10000 nm/s. Work on CCOc1ccc(NC(=O)CC2C(=O)N(c3ccc(F)cc3)C(=O)N2CCc2sccc2C)cc1 (stereo not given) yielded a Papp of 8310 nm/s. In the case of O=C(NCCc1ccccn1)C1CC(=O)N(c2n[nH]c3cc(Br)ccc23)C1 (stereo not given), the Papp is reported as 115 nm/s. Compound Cc1cccc(-c2cc(NC(=O)c3ccccc3C)n(-c3ccccc3)n2)c1 has a Papp of 7860 nm/s. CCOC(=O)c1ccc(N2C(=O)c3n[nH]c(-c4cccs4)c3C2c2ccc(OCC)cc2)cc1 (stereo not given) showed a Papp of 4480 nm/s. With CCCN1C(CC(C)C)=NS(=O)(=O)c2cc(NC(=O)c3ccco3)ccc21 the Papp was 2390 nm/s. O=C(Cc1ccc(O)cc1)N1CC(CNc2ccccc2)C2(C1)CN(c1ccccc1)C2 (stereo not given) showed a Papp of 6160 nm/s. In the case of COc1ccc(C(=O)N[C@@H]2CCC[C@@H]2C(=O)N2CCC(Cc3ccccc3)CC2)cc1, the Papp is reported as > 10000 nm/s. Work on O=C1CN(C(=O)CCC(=O)N2CCc3c(nc4cc(-c5ccccc5)[nH]n4c3=O)C2)c2ccccc2N1 yielded a Papp of 68.4 nm/s. With COc1cccc2c1CCCC2CCCN1CCN(C2CCCCC2)CC1 (stereo not given) the Papp was 7770 nm/s.
